Assay results: US20250197393A1, “INTEGRIN INHIBITOR AND USES THEREOF” (Pliant Therapeutics, Inc., priority 2023, published 2025)
Counter-ions that a name gives are not always drawn. One block for each compound: values may come before it.

Assays:
Assay type in all cases: physicochemical
[1] = Water activity experiments in MeOH/water (relative stability of hydrate Pattern A and hydrate Pattern B); settings: methanol/water
Protocol: The relative stability of the hydrate Pattern A and the hydrate Pattern B was investigated using water activity experiments in MeOH/water systems. About 5 mg of (S)-4-((2-methoxyethyl)(4-(5,6,7,8-tetrahydro-1,8-naphthyridin-2-yl)butyl)amino)-2-(quinazolin-4-ylamino)butanoic acid L-tartaric acid cocrystal Pattern A and 5 mg of (S)-4-((2-methoxyethyl)(4-(5,6,7,8-tetrahydro-1,8-naphthyridin-2-yl)butyl)amino)-2-(quinazolin-4-ylamino)butanoic acid L-tartaric acid cocrystal Pattern B were added to 0.1-0.5 mL saturated solutions of the methanol/water system. Obtained suspensions were stirred at 5° C., 25° C. and 50° C. for up to 21 days, respectively. Solid parts (wet cakes) were isolated by centrifugation filtration and investigated by XRPD.

[2] = Equilibration of Pattern C suspension in IPA/water at 5° C.; settings: IPA/water mixture, equilibration at 5° C., after 3 days
Protocol: Method 2: (S)-4-((2-methoxyethyl)(4-(5,6,7,8-tetrahydro-1,8-naphthyridin-2-yl)butyl)amino)-2-(quinazolin-4-ylamino)butanoic acid L-tartaric acid cocrystal Pattern C was prepared using the following procedure. 200 mg of (S)-4-((2-methoxyethyl)(4-(5,6,7,8-tetrahydro-1,8-naphthyridin-2-yl)butyl)amino)-2-(quinazolin-4-ylamino)butanoic acid L-tartaric acid cocrystal Pattern A (see Example 1) was dissolved in 1.8 mL of IPA/water (7:3, v:v) at 50° C. The obtained thin suspension was filtered through a 0.45 μm syringe membrane filter to obtain a clear solution. The clear solution was cooled to 5° C. at 0.1° C./min after stirring at 50° C. for about 30 min. After stirred at 5° C. for about 2 days, a suspension was obtained. Solids were collected by centrifugation and investigated by XRPD. A low crystallinity Pattern C was obtained.
The suspension was kept stirring at 5° C. for another 3 days. Solids were collected by centrifugation and investigated by XRPD. A low crystalline Pattern B was obtained.

[3] = Bulk stability of solid under temperature/humidity stress (HPLC, appearance, XRPD); settings: for Bulk appearance (color change / deliquescence): Solid state, open container, 1 week
[4] = as above
Protocol: Bulk stability of (S)-4-((2-methoxyethyl)(4-(5,6,7,8-tetrahydro-1,8-naphthyridin-2-yl)butyl)amino)-2-(quinazolin-4-ylamino)butanoic acid L-tartaric acid cocrystal Pattern A was evaluated at 25° C./92.5% RH in an open container, at 40° C./75% RH in an open container, and at 60° C. in a closed container over 1 week and 4 weeks.
However, it became deliquescent after being stressed at 25° C./92.5% RH in an open container and at 40° C./75% RH in an open container after 1 week.

[5] = Solubility at 37° C. in aqueous and biorelevant media; settings: for Solubility (mg/ mL) 2 h / Solubility (mg/ mL) 24 h: target 250 mg/mL (in free form)
Protocol: To prepare the samples of (S)-4-((2-methoxyethyl)(4-(5,6,7,8-tetrahydro-1,8-naphthyridin-2-yl)butyl)amino)-2-(quinazolin-4-ylamino)butanoic acid L-tartaric acid cocrystal Pattern A, 80.6 mg was weighed into a 2 mL glass vial. Next, 0.18 mL of solubility medium was added. The salt amount used is equivalent to 45 mg of the amorphous free form. Obtained suspensions/solutions were stirred at 37° C. at 400 rpm and sampled at 2 h and at 24 h. The samples were centrifuged at 37° C. at 14,000 rpm for 5 min. Supernatants were analyzed by HPLC and pH meter for solubility and pH value, respectively. […]

[6] = Solid state, 60° C., closed container, 1 week
[7] = pH 4.5 acetate buffer (50 mM), 37° C.
[8] = pH 6.8 phosphate buffer (50 mM), 37° C.

water activity (a.w.) at which the pattern was obtained ([1]; 5° C.): 1.0
water activity (a.w.) at which the pattern was obtained ([1]; 25° C.): 1.0
Compound: COCCN(CCCCc1ccc2c(n1)NCCC2)CC[C@H](Nc1ncnc2ccccc12)C(=O)O [Pattern B, (S)-4-((2-methoxyethyl)(4-(5,6,7,8-tetrahydro-1,8-naphthyridin-2-yl)butyl)amino)-2-(quinazolin-4-ylamino)butanoic acid]

form conversion [2]: converts to Pattern B
Compound: COCCN(CCCCc1ccc2c(n1)NCCC2)CC[C@H](Nc1ncnc2ccccc12)C(=O)O [Pattern C, (S)-4-((2-methoxyethyl)(4-(5,6,7,8-tetrahydro-1,8-naphthyridin-2-yl)butyl)amino)-2-(quinazolin-4-ylamino)butanoic acid]

purity decrease ([3]; 40° C./75% RH in an open container, 4 weeks): 2.5%
Bulk appearance (color change / deliquescence) ([3]; 25° C./92.5% RH): deliquescent
Bulk appearance (color change / deliquescence) ([3]; 40° C./75% RH): deliquescent
purity decrease ([4]; 25° C./92.5% RH in an open container, 4 weeks): 0.6%
physical stability ([4]; 60° C. in a closed container over 4 weeks): physically stable
purity decrease ([4]; 60° C. in a closed container, 4 weeks): 1.1%
Bulk (HPLC) purity, 316 nm ([4]; Solid state, 25° C./92.5% RH, open container, 1 week): 99.7%
Bulk (HPLC) purity, 316 nm ([4]; Solid state, 25° C./92.5% RH, open container, 4 weeks): 99.2%
Bulk (HPLC) purity, 316 nm ([4]; Solid state, 40° C./75% RH, open container, 1 week): 98.7%
Bulk (HPLC) purity, 316 nm ([4]; Solid state, 40° C./75% RH, open container, 4 weeks): 97.3%
Bulk (HPLC) purity, 316 nm [4, 6]: 99.3%
Bulk (XRPD) [4, 6]: No form change
Bulk (HPLC) purity, 316 nm ([4]; Solid state, 60° C., closed container, 4 weeks): 98.7%
pH of supernatant at 24 h ([5]; FaSSGF, pH 1.6, 37° C.): (5.8)
Solubility (mg/ mL) 2 h ([5]; FaSSGF, pH 1.6, 37° C.): >247 mg/mL
Solubility (mg/ mL) 24 h ([5]; FaSSGF, pH 1.6, 37° C.): >247 mg/mL
pH of supernatant at 24 h ([5]; FaSSIF-v1, pH 6.5, 37° C.): (5.9)
Solubility (mg/ mL) 2 h ([5]; FaSSIF-v1, pH 6.5, 37° C.): >213 mg/mL
Solubility (mg/ mL) 24 h ([5]; FaSSIF-v1, pH 6.5, 37° C.): >214 mg/mL
pH of supernatant at 24 h ([5]; FeSSIF-v1, pH 5.0, 37° C.): (5.8)
Solubility (mg/ mL) 2 h ([5]; FeSSIF-v1, pH 5.0, 37° C.): >214 mg/mL
Solubility (mg/ mL) 24 h ([5]; FeSSIF-v1, pH 5.0, 37° C.): >218 mg/mL
pH of supernatant at 24 h ([5]; Water, 37° C.): (5.8)
Solubility (mg/ mL) 2 h ([5]; Water, 37° C.): >247 mg/mL
Solubility (mg/ mL) 24 h ([5]; Water, 37° C.): >247 mg/mL
pH of supernatant at 24 h ([5]; pH 1.2 HCl buffer, 37° C.): (1.6)
Solubility (mg/ mL) 2 h ([5]; pH 1.2 HCl buffer, 37° C.): >208 mg/mL
Solubility (mg/ mL) 24 h ([5]; pH 1.2 HCl buffer, 37° C.): >208 mg/mL
pH of supernatant at 24 h [5, 7]: (4.8)
Solubility (mg/ mL) 2 h [5, 7]: >228 mg/mL
Solubility (mg/ mL) 24 h [5, 7]: >228 mg/mL
pH of supernatant at 24 h [5, 8]: (6.7)
Solubility (mg/ mL) 2 h [5, 8]: >229 mg/mL
Solubility (mg/ mL) 24 h [5, 8]: >229 mg/mL
Compound: COCCN(CCCCc1ccc2c(n1)NCCC2)CC[C@H](Nc1ncnc2ccccc12)C(=O)O [Phosphate salt, hydrate, (S)-4-((2-methoxyethyl)(4-(5,6,7,8-tetrahydro-1,8-naphthyridin-2-yl)butyl)amino)-2-(quinazolin-4-ylamino)butanoic acid, reference compound]
